Key:
[1] = target: T1, fms-like tyrosine kinase 3 receptor (FLT3) (Homo sapiens, UniProt P36888); assay: trFRET inhibition of Red-FL binding to SNAP-FLT3 on HEK293 cells; FL-induced FLT3 phosphorylation in RS4-11 cells (IC50 […]); assay type: cell-based
T1 construct: SNAP-FLT3 (Lumi4-Tb labelled) in HEK293 cells; endogenous FLT3 in RS4-11 cells

CaMK2α = target: T2, CaMK2α (Homo sapiens, UniProt Q9UQM7); assay: biochemical; design: ExpresS Diversity kinase profile (Eurofins Cerep P10), per cent inhibition; settings: read-out: Inhibition of reference binding (Table 4)
T2 construct: gene CAMK2A

Fms/CSFR kinase = target: T3, Fms/CSFR kinase (Homo sapiens, UniProt P07333); assay: biochemical; design: ExpresS Diversity kinase profile (Eurofins Cerep P10), per cent inhibition; settings: read-out: Inhibition of reference binding (Table 4)
T3 construct: gene CSF1R

MAPKAPK2 = MAPKAPK2 (Homo sapiens, UniProt P49137); assay: biochemical; design: ExpresS Diversity kinase profile (Eurofins Cerep P10), per cent inhibition; settings: read-out: Inhibition of reference binding (Table 4)
MARK1 = MARK1 (Homo sapiens, UniProt Q9P0L2); assay: biochemical; design: ExpresS Diversity kinase profile (Eurofins Cerep P10), per cent inhibition; settings: read-out: Inhibition of reference binding (Table 4)
MNK2 = target: T4, MNK2 (Homo sapiens, UniProt Q9HBH9); assay: biochemical; design: ExpresS Diversity kinase profile (Eurofins Cerep P10), per cent inhibition; settings: read-out: Inhibition of reference binding (Table 4)
T4 construct: gene MKNK2

PDK1 = target: T5, PDK1 (Homo sapiens, UniProt O15530); assay: biochemical; design: ExpresS Diversity kinase profile (Eurofins Cerep P10), per cent inhibition; settings: read-out: Inhibition of reference binding (Table 4)
T5 construct: gene PDPK1

PRLR-JAK1 = PRLR-JAK1 (Homo sapiens, UniProt P16471); assay: cell-based; design: PathHunter eXpress functional assay (DiscoverX tkMAX), inhibition of reference ligand response; settings: read-out: % Inhibition of reference binding (Table 3)
ErbB2-ErbB3 = ErbB2-ErbB3 (Homo sapiens, UniProt P04626+P21860); assay: cell-based; design: PathHunter eXpress functional assay (DiscoverX tkMAX), inhibition of reference ligand response; settings: read-out: % Inhibition of reference binding (Table 3)
DDR1 = DDR1 (Homo sapiens, UniProt Q08345); assay: cell-based; design: PathHunter eXpress functional assay (DiscoverX tkMAX), inhibition of reference ligand response; settings: read-out: % Inhibition of reference binding (Table 3)
EphA5 = EphA5 (Homo sapiens, UniProt P54756); assay: cell-based; design: PathHunter eXpress functional assay (DiscoverX tkMAX), inhibition of reference ligand response; settings: read-out: % Inhibition of reference binding (Table 3)
EphA7 = EphA7 (Homo sapiens, UniProt Q15375); assay: cell-based; design: PathHunter eXpress functional assay (DiscoverX tkMAX), inhibition of reference ligand response; settings: read-out: % Inhibition of reference binding (Table 3)
EphB2 = EphB2 (Homo sapiens, UniProt P29323); assay: cell-based; design: PathHunter eXpress functional assay (DiscoverX tkMAX), inhibition of reference ligand response; settings: read-out: % Inhibition of reference binding (Table 3)
EphB3 = EphB3 (Homo sapiens, UniProt P54753); assay: cell-based; design: PathHunter eXpress functional assay (DiscoverX tkMAX), inhibition of reference ligand response; settings: read-out: % Inhibition of reference binding (Table 3)
EphB4 = EphB4 (Homo sapiens, UniProt P54760); assay: cell-based; design: PathHunter eXpress functional assay (DiscoverX tkMAX), inhibition of reference ligand response; settings: read-out: % Inhibition of reference binding (Table 3)
ErbB1 = target: T6, ErbB1 (Homo sapiens, UniProt P00533); assay: cell-based; design: PathHunter eXpress functional assay (DiscoverX tkMAX), inhibition of reference ligand response; settings: read-out: % Inhibition of reference binding (Table 3)
T6 construct: gene EGFR

ErbB4 = ErbB4 (Homo sapiens, UniProt Q15303); assay: cell-based; design: PathHunter eXpress functional assay (DiscoverX tkMAX), inhibition of reference ligand response; settings: read-out: % Inhibition of reference binding (Table 3)
FLT4 = FLT4 (Homo sapiens, UniProt P35916); assay: cell-based; design: PathHunter eXpress functional assay (DiscoverX tkMAX), inhibition of reference ligand response; settings: read-out: % Inhibition of reference binding (Table 3)
IGF1R = IGF1R (Homo sapiens, UniProt P08069); assay: cell-based; design: PathHunter eXpress functional assay (DiscoverX tkMAX), inhibition of reference ligand response; settings: read-out: % Inhibition of reference binding (Table 3)
INSRb = target: T7, INSRb (Homo sapiens, UniProt P06213); assay: cell-based; design: PathHunter eXpress functional assay (DiscoverX tkMAX), inhibition of reference ligand response; settings: read-out: % Inhibition of reference binding (Table 3)
T7 construct: gene INSR; isoform b

KDR = KDR (Homo sapiens, UniProt P35968); assay: cell-based; design: PathHunter eXpress functional assay (DiscoverX tkMAX), inhibition of reference ligand response; settings: read-out: % Inhibition of reference binding (Table 3)
PDGFRa = PDGFRa (Homo sapiens, UniProt P16234); assay: cell-based; design: PathHunter eXpress functional assay (DiscoverX tkMAX), inhibition of reference ligand response; settings: read-out: % Inhibition of reference binding (Table 3)
PDGFRb = PDGFRb (Homo sapiens, UniProt P09619); assay: cell-based; design: PathHunter eXpress functional assay (DiscoverX tkMAX), inhibition of reference ligand response; settings: read-out: % Inhibition of reference binding (Table 3)
c-KIT = c-KIT (Homo sapiens, UniProt P10721); assay: cell-based; design: PathHunter eXpress functional assay (DiscoverX tkMAX), inhibition of reference ligand response; settings: read-out: % Inhibition of reference binding (Table 3)
TrkC-P75 = target: T8, TrkC-P75 (Homo sapiens, UniProt Q16288); assay: cell-based; design: PathHunter eXpress functional assay (DiscoverX tkMAX), inhibition of reference ligand response; settings: read-out: % Inhibition of reference binding (Table 3)
T8 construct: gene NTRK3

c-Ret-GFRα2 = c-Ret-GFRα2 (Homo sapiens, UniProt P07949); assay: cell-based; design: PathHunter eXpress functional assay (DiscoverX tkMAX), inhibition of reference ligand response; settings: read-out: % Inhibition of reference binding (Table 3)

FLT4, sequence (P35916 whole entry): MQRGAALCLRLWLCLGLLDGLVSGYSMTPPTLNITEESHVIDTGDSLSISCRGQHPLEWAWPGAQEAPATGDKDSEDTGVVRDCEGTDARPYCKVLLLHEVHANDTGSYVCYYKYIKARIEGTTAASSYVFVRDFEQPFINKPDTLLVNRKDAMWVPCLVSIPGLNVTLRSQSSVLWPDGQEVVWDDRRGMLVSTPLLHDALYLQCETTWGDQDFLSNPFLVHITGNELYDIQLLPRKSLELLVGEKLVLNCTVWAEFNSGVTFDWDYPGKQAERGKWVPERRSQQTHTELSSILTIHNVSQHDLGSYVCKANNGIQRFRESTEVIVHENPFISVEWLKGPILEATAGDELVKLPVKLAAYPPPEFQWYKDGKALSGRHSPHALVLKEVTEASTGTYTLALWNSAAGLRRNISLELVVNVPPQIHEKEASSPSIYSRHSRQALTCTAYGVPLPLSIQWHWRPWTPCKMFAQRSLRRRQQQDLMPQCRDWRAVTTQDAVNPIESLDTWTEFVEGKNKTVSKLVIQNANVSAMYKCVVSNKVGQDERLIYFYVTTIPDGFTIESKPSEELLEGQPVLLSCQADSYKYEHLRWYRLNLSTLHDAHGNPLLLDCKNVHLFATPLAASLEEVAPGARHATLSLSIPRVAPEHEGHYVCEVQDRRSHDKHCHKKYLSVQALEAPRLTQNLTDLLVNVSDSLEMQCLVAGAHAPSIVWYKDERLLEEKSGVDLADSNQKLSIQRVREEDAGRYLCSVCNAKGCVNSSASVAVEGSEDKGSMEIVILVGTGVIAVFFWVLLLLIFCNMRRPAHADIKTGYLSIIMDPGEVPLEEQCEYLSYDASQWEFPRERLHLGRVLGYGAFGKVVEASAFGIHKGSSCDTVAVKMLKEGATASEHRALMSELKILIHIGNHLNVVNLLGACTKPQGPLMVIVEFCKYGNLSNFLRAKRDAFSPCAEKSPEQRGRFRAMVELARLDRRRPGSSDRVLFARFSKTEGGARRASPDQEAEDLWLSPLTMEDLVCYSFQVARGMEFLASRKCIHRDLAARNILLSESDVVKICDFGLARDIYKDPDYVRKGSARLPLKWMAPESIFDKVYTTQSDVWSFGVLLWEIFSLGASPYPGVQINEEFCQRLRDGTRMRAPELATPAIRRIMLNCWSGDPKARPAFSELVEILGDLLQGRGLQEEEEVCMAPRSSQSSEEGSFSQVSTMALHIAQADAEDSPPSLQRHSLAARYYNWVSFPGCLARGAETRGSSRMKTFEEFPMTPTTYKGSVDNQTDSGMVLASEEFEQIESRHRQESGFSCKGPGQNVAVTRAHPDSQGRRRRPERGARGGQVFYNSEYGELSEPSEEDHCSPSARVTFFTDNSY
T3 sequence (P07333 whole entry): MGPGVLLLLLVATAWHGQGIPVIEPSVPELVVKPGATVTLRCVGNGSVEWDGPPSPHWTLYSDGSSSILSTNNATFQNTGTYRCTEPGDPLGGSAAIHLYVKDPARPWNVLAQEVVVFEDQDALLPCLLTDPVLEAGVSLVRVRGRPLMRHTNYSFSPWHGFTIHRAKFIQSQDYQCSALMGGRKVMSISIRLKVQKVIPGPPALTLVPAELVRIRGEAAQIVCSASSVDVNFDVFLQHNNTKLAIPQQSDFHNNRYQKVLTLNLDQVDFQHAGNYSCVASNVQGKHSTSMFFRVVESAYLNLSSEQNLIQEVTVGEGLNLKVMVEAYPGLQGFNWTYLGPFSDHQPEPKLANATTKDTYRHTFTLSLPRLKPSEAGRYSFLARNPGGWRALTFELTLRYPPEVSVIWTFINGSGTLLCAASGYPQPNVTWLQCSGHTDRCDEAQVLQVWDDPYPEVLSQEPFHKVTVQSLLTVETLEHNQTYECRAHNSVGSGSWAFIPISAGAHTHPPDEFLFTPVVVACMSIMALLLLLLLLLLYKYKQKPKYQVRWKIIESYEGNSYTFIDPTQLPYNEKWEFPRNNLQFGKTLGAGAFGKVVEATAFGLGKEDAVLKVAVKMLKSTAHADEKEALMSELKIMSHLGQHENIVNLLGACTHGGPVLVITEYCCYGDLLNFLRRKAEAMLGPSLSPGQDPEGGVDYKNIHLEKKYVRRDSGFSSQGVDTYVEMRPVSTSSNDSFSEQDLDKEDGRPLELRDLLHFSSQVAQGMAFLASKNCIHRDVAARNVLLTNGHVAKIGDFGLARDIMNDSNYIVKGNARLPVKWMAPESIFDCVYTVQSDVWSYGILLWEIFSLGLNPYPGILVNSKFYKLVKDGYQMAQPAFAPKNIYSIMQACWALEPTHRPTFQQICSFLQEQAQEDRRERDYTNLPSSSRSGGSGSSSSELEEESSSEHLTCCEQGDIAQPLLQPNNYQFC
T2 sequence (Q9UQM7 whole entry): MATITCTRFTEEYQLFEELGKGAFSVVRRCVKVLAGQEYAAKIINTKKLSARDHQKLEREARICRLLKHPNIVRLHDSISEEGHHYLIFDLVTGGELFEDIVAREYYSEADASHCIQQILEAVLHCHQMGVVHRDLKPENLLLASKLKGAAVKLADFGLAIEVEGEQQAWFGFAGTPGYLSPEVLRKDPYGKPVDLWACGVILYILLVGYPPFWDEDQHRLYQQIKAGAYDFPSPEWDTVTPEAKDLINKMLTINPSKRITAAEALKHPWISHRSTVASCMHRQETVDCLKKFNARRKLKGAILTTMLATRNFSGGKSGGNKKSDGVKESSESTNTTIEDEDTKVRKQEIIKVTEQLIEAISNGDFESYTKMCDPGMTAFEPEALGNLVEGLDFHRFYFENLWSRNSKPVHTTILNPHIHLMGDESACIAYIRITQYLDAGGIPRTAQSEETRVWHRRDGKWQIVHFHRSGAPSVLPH
PDGFRb, sequence (P09619 whole entry): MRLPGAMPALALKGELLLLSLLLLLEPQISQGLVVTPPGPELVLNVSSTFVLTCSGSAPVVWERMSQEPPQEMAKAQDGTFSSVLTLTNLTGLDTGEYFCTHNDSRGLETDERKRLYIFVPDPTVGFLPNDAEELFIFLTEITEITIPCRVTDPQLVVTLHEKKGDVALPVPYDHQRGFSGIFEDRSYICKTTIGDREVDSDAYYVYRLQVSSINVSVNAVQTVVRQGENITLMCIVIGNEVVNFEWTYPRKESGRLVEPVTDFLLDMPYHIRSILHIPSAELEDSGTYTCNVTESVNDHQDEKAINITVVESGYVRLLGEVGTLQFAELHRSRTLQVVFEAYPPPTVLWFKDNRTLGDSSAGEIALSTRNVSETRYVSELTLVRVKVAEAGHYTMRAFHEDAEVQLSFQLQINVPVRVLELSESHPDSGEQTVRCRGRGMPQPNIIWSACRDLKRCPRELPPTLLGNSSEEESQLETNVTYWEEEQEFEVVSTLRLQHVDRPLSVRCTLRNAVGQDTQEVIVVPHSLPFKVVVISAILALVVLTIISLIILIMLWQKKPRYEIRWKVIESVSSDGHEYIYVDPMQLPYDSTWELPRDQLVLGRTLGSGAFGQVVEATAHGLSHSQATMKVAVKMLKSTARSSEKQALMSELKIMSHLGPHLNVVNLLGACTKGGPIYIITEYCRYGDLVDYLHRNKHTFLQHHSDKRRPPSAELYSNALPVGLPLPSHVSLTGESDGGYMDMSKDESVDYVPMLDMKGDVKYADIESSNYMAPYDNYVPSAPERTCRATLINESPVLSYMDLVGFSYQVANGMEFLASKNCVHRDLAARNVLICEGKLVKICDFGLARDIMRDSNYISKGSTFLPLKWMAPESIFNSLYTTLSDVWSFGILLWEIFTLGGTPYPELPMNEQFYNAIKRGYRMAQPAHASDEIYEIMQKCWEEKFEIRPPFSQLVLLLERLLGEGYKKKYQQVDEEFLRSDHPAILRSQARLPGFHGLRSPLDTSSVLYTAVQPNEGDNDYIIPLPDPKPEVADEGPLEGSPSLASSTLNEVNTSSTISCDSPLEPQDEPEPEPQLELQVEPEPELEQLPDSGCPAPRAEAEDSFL
T4 sequence (Q9HBH9 whole entry): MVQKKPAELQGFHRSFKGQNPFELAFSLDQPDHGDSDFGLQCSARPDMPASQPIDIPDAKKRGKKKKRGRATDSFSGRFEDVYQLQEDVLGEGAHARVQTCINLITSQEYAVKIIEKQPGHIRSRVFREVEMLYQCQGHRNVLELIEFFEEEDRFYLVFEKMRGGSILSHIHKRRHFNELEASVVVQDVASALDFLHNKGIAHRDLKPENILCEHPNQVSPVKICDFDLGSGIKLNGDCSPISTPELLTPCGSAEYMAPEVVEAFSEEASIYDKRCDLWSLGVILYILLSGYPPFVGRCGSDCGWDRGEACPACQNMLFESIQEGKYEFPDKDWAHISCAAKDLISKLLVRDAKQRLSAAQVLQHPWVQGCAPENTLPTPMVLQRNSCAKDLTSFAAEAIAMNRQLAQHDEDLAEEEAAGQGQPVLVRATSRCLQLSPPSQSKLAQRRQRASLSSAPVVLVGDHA
MAPKAPK2, sequence (P49137 whole entry): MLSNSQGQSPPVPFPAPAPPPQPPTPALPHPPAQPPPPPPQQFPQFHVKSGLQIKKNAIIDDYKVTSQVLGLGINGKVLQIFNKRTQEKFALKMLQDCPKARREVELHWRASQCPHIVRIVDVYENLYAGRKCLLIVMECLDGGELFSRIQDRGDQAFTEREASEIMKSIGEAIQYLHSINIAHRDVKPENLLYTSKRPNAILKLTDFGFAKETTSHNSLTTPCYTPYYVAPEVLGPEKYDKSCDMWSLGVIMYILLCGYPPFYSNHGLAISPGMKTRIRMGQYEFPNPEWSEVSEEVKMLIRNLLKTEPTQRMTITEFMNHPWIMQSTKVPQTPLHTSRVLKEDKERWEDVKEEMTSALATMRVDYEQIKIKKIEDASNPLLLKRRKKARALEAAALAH

Compound: O=C(Nc1cc(Cl)ccc1O)c1cccc(S(=O)(=O)N2CCCCC2)c1 [compound 66, BDT001]
- IC50 [1]: 11 µM
- inhibition at 10 µM (CaMK2α): 6%
- inhibition at 10 µM (Fms/CSFR kinase): 1%
- inhibition at 10 µM (MAPKAPK2): 6%
- inhibition at 10 µM (MARK1): 13%
- inhibition at 10 µM (MNK2): -7%
- inhibition at 10 µM (PDK1): 3%
- inhibition at 10 µM (PRLR-JAK1): 6.1%
- inhibition at 10 µM (ErbB2-ErbB3): 13.6%
- inhibition at 10 µM (DDR1): -0.7%
- inhibition at 10 µM (EphA5): 5%
- inhibition at 10 µM (EphA7): 4.3%
- inhibition at 10 µM (EphB2): 1.4%
- inhibition at 10 µM (EphB3): 2.8%
- inhibition at 10 µM (EphB4): 22.7%
- inhibition at 10 µM (ErbB1): 8.7%
- inhibition at 10 µM (ErbB4): -0.1%
- inhibition at 10 µM (FLT4): 16.8%
- inhibition at 10 µM (IGF1R): 10.1%
- inhibition at 10 µM (INSRb): 10%
- inhibition at 10 µM (KDR): -3.1%
- inhibition at 10 µM (PDGFRa): 2.2%
- inhibition at 10 µM (PDGFRb): 4.2%
- inhibition at 10 µM (c-KIT): 7.8%
- inhibition at 10 µM (TrkC-P75): 0.6%
- inhibition at 10 µM (c-Ret-GFRα2): -4.1%
